Our source for the IC50 values is BindingDB's records for patent US20240010634 (H. Lee Moffitt Cancer Center and Research Institute, 2024).

The experiment concerns the target Activated CDC42 kinase 1 (Homo sapiens, UniProt Q07912).

Sequence of Activated CDC42 kinase 1 (Q07912 whole entry): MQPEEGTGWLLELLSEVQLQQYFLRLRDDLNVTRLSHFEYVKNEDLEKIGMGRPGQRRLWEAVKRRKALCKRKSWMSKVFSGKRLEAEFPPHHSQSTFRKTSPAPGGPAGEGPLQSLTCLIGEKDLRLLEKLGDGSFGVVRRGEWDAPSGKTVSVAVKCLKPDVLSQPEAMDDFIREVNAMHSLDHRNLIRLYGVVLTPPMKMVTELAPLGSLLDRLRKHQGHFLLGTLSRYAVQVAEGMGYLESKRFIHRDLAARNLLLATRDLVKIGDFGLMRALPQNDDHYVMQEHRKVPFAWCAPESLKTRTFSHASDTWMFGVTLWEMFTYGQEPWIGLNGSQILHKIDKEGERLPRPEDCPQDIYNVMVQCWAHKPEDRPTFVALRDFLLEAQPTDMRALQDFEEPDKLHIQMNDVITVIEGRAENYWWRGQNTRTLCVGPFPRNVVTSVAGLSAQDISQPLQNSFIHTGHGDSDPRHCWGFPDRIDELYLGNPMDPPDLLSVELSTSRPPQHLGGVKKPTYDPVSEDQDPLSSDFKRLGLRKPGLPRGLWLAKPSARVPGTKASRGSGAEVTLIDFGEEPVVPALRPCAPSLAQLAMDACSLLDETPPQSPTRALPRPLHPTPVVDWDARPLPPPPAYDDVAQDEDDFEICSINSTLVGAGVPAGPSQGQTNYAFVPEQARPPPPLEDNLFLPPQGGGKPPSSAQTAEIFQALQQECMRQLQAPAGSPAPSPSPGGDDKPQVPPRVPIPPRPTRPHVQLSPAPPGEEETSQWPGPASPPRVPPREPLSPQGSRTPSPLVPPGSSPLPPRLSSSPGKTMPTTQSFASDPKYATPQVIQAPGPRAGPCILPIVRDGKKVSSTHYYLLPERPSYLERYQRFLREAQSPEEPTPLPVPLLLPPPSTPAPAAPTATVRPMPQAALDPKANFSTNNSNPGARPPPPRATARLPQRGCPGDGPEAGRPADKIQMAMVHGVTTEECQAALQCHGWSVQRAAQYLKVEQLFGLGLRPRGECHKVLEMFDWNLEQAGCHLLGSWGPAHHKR

Usually IC50 stands for the point on the concentration scale where inhibition reaches its midpoint. Read a low IC50 as inhibition by little substance. The compound `COc1cc(N2CCN(C)CC2)ccc1Nc1ncc(Cl)c(Nc2ccc(NS(C)(=O)=O)cc2)n1` [US20240010634, Example 33] showed a half-inhibitory concentration (IC50) of 26 nM. That is a double-digit nanomolar value.
